The source of these data is patent publication US11596639B2, “Substituted indole Mcl-1 inhibitors” (Vanderbilt University, priority 2016, dated 2023).

Test [1] concerns H929 human cancer cell lines. Description: Cellular viability / proliferation (Cell TiterGlo, 72 h). The test is classed as cell-based. The essentials: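 H929 cells plated at 1,000/well in 10% FBS medium received a 2-fold serial compound dilution (top 50 μM, DMSO <1%) 24 h later. After 72 h, viability was read by CellTiter-Glo luminescence. IC50 came from a four-parameter fit.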

In a further test the target is Mcl-1 (Homo sapiens (Human), UniProt Q07820). Description: Fluorescence polarization anisotropy (FPA) competition assay, FITC-Bak or FITC-Bim BH3 peptide. As to conditions: read-out: Ki for Inhibition of Mcl-1 by FPA assay. The test is classed as binding. In general terms: Fluorescence polarisation rises when a labelled molecule tumbles more slowly, as on binding a larger partner.
Mcl-1, sequence (Q07820 172-327): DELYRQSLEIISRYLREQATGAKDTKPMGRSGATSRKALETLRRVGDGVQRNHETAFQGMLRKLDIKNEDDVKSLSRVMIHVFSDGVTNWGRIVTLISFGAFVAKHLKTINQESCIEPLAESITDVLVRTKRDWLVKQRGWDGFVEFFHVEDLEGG

Where [2] appears, read: Homo sapiens, NCI-H929, 72 h, read-out: GI50 on cellular proliferation of H929 human cancer cell lines, H929 cells, 72 h, Cell TiterGlo, 10% FBS.

Like-named read-outs stand apart in the source and are kept apart here.

Turning to `Cc1cc(OCCCc2c3n(c4c(-c5c(C)nn(C)c5C)c(Cl)ccc24)CCCN(c2cc(C(=O)O)c4c(Cl)cn(C)c4c2)C3=O)cc(C)c1Cl` [Example 3, 3-Chloro-6-(8-chloro-11-(3-(4-chloro-3,5-dimethylphenoxy)propyl)-1-oxo-7-(1,3,5-trimethyl-1H-pyrazol-4-yl)-4,5-dihydro-1H-[1,4]diazepino[1,2-a]indol-2(3H)-yl)-1-methyl-1H-indole-4-carboxylic acid], in test [1] (setting [2]), the GI50 came out at 6.6 µM. In addition, at Mcl-1, the Ki was 1.1 nM.
For `Cc1cc(OCCCc2c3n(c4c(-c5c(C)nn(C)c5C)c(Cl)ccc24)CCCN(c2cc(C(=O)O)c4nnn(C)c4c2)C3=O)cc(C)c1Cl` [Example 4, 6-[8-Chloro-11-[3-(4-chloro-3,5-dimethyl-phenoxy)propyl]-1-oxo-7-(1,3,5-trimethylpyrazol-4-yl)-4,5-dihydro-3H-[1,4]diazepino[1,2-a]indol-2-yl]-1-methyl-benzotriazole-4-carboxylic acid] the same measures were 8.7 µM and 3.3 nM.
For `Cc1cc(OCCCc2c3n(c4c(-c5c(C)nn(C)c5C)c(Cl)ccc24)CCCN(c2cc(C(=O)O)c4ncn(C)c4c2)C3=O)cc(C)c1Cl` [Example 7, 6-[8-chloro-11-[3-(4-chloro-3,5-dimethyl-phenoxy)propyl]-1-oxo-7-(1,3,5-trimethylpyrazol-4-yl)-4,5-dihydro-3H-[1,4]diazepino[1,2-a]indol-2-yl]-1-methyl-benzimidazole-4-carboxylic acid] the same measures were 13 µM and 2.2 nM.
For `Cc1cc(OCCCc2c3n(c4c(-c5c(C)nn(C)c5C)c(Cl)ccc24)CCCN(c2cc(C(=O)O)cc4c2ccn4CCN(C)C)C3=O)cc(C)c1Cl` [Example 11, 4-(8-Chloro-11-(3-(4-chloro-3,5-dimethylphenoxy)propyl)-1-oxo-7-(1,3,5-trimethyl-1H-pyrazol-4-yl)-4,5-dihydro-1H-[1,4]diazepino[1,2-a]indol-2(3H)-yl)-1-(2-(dimethylamino)ethyl)-1H-indole-6-carboxylic acid] the same measures were 9.9 µM and 4 nM.
`Cc1cc(OCCCc2c3n(c4c(-c5c(C)nn(C)c5C)c(Cl)ccc24)CCCN(c2cc(C(=O)O)c4cn(CCN5CCOCC5)nc4c2)C3=O)cc(C)c1Cl` [Example 12, 6-[8-Chloro-11-[3-(4-chloro-3,5-dimethyl-phenoxy)propyl]-1-oxo-7-(1,3,5-trimethylpyrazol-4-yl)-4,5-dihydro-3H-[1,4]diazepino[1,2-a]indol-2-yl]-2-(2-morpholinoethyl)indazole-4-carboxylic acid]: the GI50 in test [1] (setting [2]) amounted to 8.3 µM. Further, the Ki at Mcl-1 was 1.2 nM.
On to `Cc1cc(OCCCc2c3n(c4c(-c5c(C)nn(C)c5C)c(Cl)ccc24)CCCN(c2cccc4c(C(=O)O)nn(C)c24)C3=O)cc(C)c1Cl` [Example 13, 7-[8-Chloro-11-[3-(4-chloro-3,5-dimethyl-phenoxy)propyl]-1-oxo-7-(1,3,5-trimethylpyrazol-4-yl)-4,5-dihydro-3H-[1,4]diazepino[1,2-a]indol-2-yl]-1-methyl-indazole-3-carboxylic acid], for which, in test [1] (setting [2]), the GI50 worked out at 4.5 µM. Moreover, at Mcl-1, the Ki is < 1 nM.
As for `Cc1cc(OCCCc2c3n(c4c(-c5c(C)nn(C)c5C)c(Cl)ccc24)CCCN(c2cc(C(=O)O)c4cnn(CCN5CCOCC5)c4c2)C3=O)cc(C)c1Cl` [Example 14, 6-[8-Chloro-11-[3-(4-chloro-3,5-dimethyl-phenoxy)propyl]-1-oxo-7-(1,3,5-trimethylpyrazol-4-yl)-4,5-dihydro-3H-[1,4]diazepino[1,2-a]indol-2-yl]-1-(2-morpholinoethyl)indazole-4-carboxylic acid], the GI50 in test [1] (setting [2]) amounted to 3.2 µM. Moreover, the Ki on Mcl-1 was < 1 nM.
On to `Cc1cc(OCCCc2c3n(c4c(-c5c(C)nn(C)c5C)c(Cl)ccc24)CCCN(c2cccc4c(-c5nn[nH]n5)cn(C)c24)C3=O)cc(C)c1Cl` [Example 15, 8-Chloro-11-[3-(4-chloro-3,5-dimethyl-phenoxy)propyl]-2-[1-methyl-3-(2H-tetrazol-5-yl)indol-7-yl]-7-(1,3,5-trimethylpyrazol-4-yl)-4,5-dihydro-3H-[1,4]diazepino[1,2-a]indol-1-one], for which the GI50 in test [1] (setting [2]) worked out at 11 µM. Moreover, the Ki at Mcl-1 worked out at 2.2 nM.
The like results for `Cc1cc(OCCCc2c3n(c4c(-c5c(C)nn(C)c5C)c(Cl)ccc24)CCCN(c2cccc4c(C(=O)O)n(C)nc24)C3=O)cc(C)c1Cl` [Example 16, 7-[8-Chloro-11-[3-(4-chloro-3,5-dimethyl-phenoxy)propyl]-1-oxo-7-(1,3,5-trimethylpyrazol-4-yl)-4,5-dihydro-3H-[1,4]diazepino[1,2-a]indol-2-yl]-2-methyl-indazole-3-carboxylic acid] were, in that order, 2.9 µM and < 1 nM.
As to `CC[C@@H]1Cn2c(c(CCCOc3cc(C)c(Cl)c(C)c3)c3ccc(Cl)c(-c4c(C)nn(C)c4C)c32)C(=O)N1c1ccc(C(=O)O)c2ncccc12` [Example 19, (R)-5-(7-chloro-10-(3-(4-chloro-3,5-dimethylphenoxy)propyl)-3-ethyl-1-oxo-6-(1,3,5-trimethyl-1H-pyrazol-4-yl)-3,4-dihydropyrazino[1,2-a]indol-2(1H)-yl)quinoline-8-carboxylic acid], in test [1] (setting [2]), the GI50 is 4.1 µM. In addition, on Mcl-1, the Ki was 1.9 nM.
For `CC[C@@H]1Cn2c(c(CCCOc3cc(C)c(Cl)c(C)c3)c3ccc(Cl)c(-c4c(C)nn(C)c4C)c32)C(=O)N1Cc1ccc(C(=O)O)cn1` [Example 20, (R)-6-((7-chloro-10-(3-(4-chloro-3,5-dimethylphenoxy)propyl)-3-ethyl-1-oxo-6-(1,3,5-trimethyl-1H-pyrazol-4-yl)-3,4-dihydropyrazino[1,2-a]indol-2(1H)-yl)methyl)nicotinic acid] the same measures were 6.5 µM and 2.5 nM.
Take `CC[C@@H]1Cn2c(c(CCCOc3cc(C)c(Cl)c(C)c3)c3ccc(Cl)c(-c4c(C)nn(C)c4C)c32)C(=O)N1c1cccc(C(=O)O)c1` [Example 21, (R)-3-(7-chloro-10-(3-(4-chloro-3,5-dimethylphenoxy)propyl)-3-ethyl-t-oxo-6-(1,3,5-trimethyl-1H-pyrazol-4-yl)-3,4-dihydropyrazino[1,2-a]indol-2(1H)-yl)benzoic acid]: the GI50 in test [1] (H929 cells, 72 h, Cell TiterGlo, 10% FBS, read-out: GI50 on cellular proliferation of H929 human cancer cell lines) came to 4.9 µM. Moreover, the inhibitory constant (Ki) at Mcl-1 amounted to 2.3 nM.
For `CC[C@@H]1Cn2c(c(CCCOc3cc(C)c(Cl)c(C)c3)c3ccc(Cl)c(-c4c(C)nn(C)c4C)c32)C(=O)N1c1ccc(C(=O)O)cc1` [Example 23, (R)-4-(7-chloro-10-(3-(4-chloro-3,5-dimethylphenoxy)propyl)-3-ethyl-1-oxo-6-(1,3,5-trimethyl-1H-pyrazol-4-yl)-3,4-dihydropyrazino[1,2-a]indol-2(1H)-yl)benzoic acid], the GI50 in test [1] (setting [2]) is 4.9 µM. Besides, the Ki on Mcl-1 is < 1 nM.
For `Cc1cc(OCCCc2c3n(c4c(-c5c(C)nn(C)c5C)c(Cl)ccc24)[C@H](C)CN(c2cc(C(=O)O)cc4c2OCCO4)C3=O)cc(C)c1Cl` [Example 26, (R)-8-(7-chloro-10-(3-(4-chloro-3,5-dimethylphenoxy)propyl)-4-methyl-1-oxo-6-(1,3,5-trimethyl-1H-pyrazol-4-yl)-3,4-dihydropyrazino[1,2-a]indol-2(1H)-yl)-2,3-dihydrobenzo[b][1,4]dioxine-6-carboxylic acid] the same measures were 0.83 µM and 1.3 nM.
Regarding `Cc1cc(OCCCc2c3n(c4c(-c5c(C)nn(C)c5C)c(Cl)ccc24)CCCN(c2cc(C(=O)O)cc4nn(CCN(C)C)cc24)C3=O)cc(C)c1Cl` [Example 28, 4-[8-chloro-11-[3-(4-chloro-3,5-dimethyl-phenoxy)propyl]-1-oxo-7-(1,3,5-trimethylpyrazol-4-yl)-4,5-dihydro-3H-[1,4]diazepino[1,2-a]indol-2-yl]-2-[2-(dimethylamino)ethyl]indazole-6-carboxylic acid], in test [1] (setting [2]), the GI50 was 3.7 µM. Besides, the Ki on Mcl-1 turned out to be 1.8 nM.
The like results for `Cc1cc(OCCCc2c3n(c4c(-c5c(C)nn(C)c5C)c(Cl)ccc24)CCCN(c2cc(C(=O)O)c4cnn(CCN(C)C)c4c2)C3=O)cc(C)c1Cl` [Example 30, 6-[8-Chloro-11-[3-(4-chloro-3,5-dimethyl-phenoxy)propyl]-1-oxo-7-(1,3,5-trimethylpyrazol-4-yl)-4,5-dihydro-3H-[1,4]diazepino[1,2-a]indol-2-yl]-1-[2-(dimethylamino)ethyl]indazole-4-carboxylic acid] were, in that order, 5.4 µM and 1.2 nM.
With `Cc1cc(OCCCc2c3n(c4c(-c5c(C)nn(C)c5C)c(Cl)ccc24)CCCN(c2cc(C(=O)O)c4ccn(CCN5CCOCC5)c4c2)C3=O)cc(C)c1Cl` [Example 31, 6-(8-chloro-11-(3-(4-chloro-3,5-dimethylphenoxy)propyl)-1-oxo-7-(1,3,5-trimethyl-1H-pyrazol-4-yl)-4,5-dihydro-1H-[1,4]diazepino[1,2-a]indol-2(3H)-yl)-1-(2-morpholinoethyl)-1H-indole-4-carboxylic acid], the GI50 in test [1] (setting [2]) came to 1.8 µM. Besides, at Mcl-1, the Ki is < 1 nM.
The like results for `Cc1cc(OCCCc2c3n(c4c(-c5c(C)nn(C)c5C)c(Cl)ccc24)CCCN(c2cc(C(=O)O)cc4c2ccn4S(C)(=O)=O)C3=O)cc(C)c1Cl` [Example 32, 4-(8-Chloro-11-(3-(4-chloro-3,5-dimethylphenoxy)propyl)-1-oxo-7-(1,3,5-trimethyl-1H-pyrazol-4-yl)-4,5-dihydro-1H-[1,4]diazepino[1,2-a]indol-2(3H)-yl)-1-(methylsulfonyl)-1H-indole-6-carboxylic acid] were, in that order, 7.6 µM and < 1 nM.

As usually defined, the Ki is a dissociation constant, usually derived from enzyme kinetics or from competition with a known ligand.
